{"source": "patent US6685840B2", "about": "“Method for determining the dissolution rate of a solid water treatment product” (Ondeo Nalco Company, priority 2002, dated 2004)", "experiment": "Dissolution (release) rate of the ingredients of a solid water treatment tablet in standard cooling water", "format": "physicochemical", "parameters": "key: *: value was below detection limits for this moiety", "from_the_text": "After the solid water treatment product has been formed it must be tested to determine its dissolution rate in water. Test water that is formulated to closely match the type of water found in the industrial water system of interest is provided. For example, “standard” test water for cooling water in a cooling tower typically has the following features: 60 ppm Ca^2+, 18 ppm Mg^2+, 134 ppm HCO3^−, 53 ppm Cl^− and 72 ppm SO4^2−. A typical scale formation test for a model or simulation boiler typically has these concentrations of scaling contaminants in the boiler water; 10 ppm Calcium as CaCO3, 5 ppm Magnesium as CaCO3, 5 ppm silica as SiO2. Alkalinity such as caustic (NaOH) is added in sufficient quantity to maintain a pH of typically between 10.0 and 11.0 in the boiler water.\nIn order to determine the dissolution rate of the solid water treatment product the solid water treatment product is placed in the test water and allowed to dissolve. A fluorometer is provided and the fluorescent signal of the Fluorescent Tracer present in the solid water treatment product is measured using the fluorometer. The fluorescent signal is measured at regular intervals.\nA tablet of solid cooling water treatment product of Formulation 1, {27.6% benzotriazole, 70.4% 1-hydroxyethylidene-1,1-diphosphonic acid and 2% 1,3,6,8-pyrenetetrasulfonic acid, sodium salt} is made. The tablet weighs 0.9081 grams. The tablet is placed in standard cooling water {60 ppm Ca^2+, 18 ppm Mg^2+, 134 ppm […] , 53 ppm Cl^31 and 72 ppm SO4^2−} and the dissolution rate of each ingredient in the table is measured. The dissolution rate of each ingredient present is measured using analytical techniques suitable for analyzing for each ingredient. The dissolution rate of the benzotriazole (abbreviated “BZT”) is measured using fluorometric analytical techniques, known in the art of analyzing triazoles. The dissolution rate of 1-hydroxyethylidene-1,1-diphosphonic acid (abbreviated “HEDP”) is measured using standard “colorimetric determination” analytical techniques, known in the art of analyzing for diphosphonic acids. The dissolution rate of the 1,3,6,8-pyrenetetrasulfonic acid, sodium salt (abbreviated “PTSA”) is measured using fluorometric analytical techniques.\nThe results of this test are shown in Table 1 Release rates for each ingredient are given in milligrams (‘mg”) per minute (“min.”).\nThe same tablet was made as was made in Example 1, except that this time, the tablet was coated with a polyethylene oxide material with a molecular weight of approximately 15,000 such that the final weight of finished tablet was 1.411 grams. The dissolution rate of the three ingredients in this tablet were determined, using the same analytical techniques as in Example 1.", "key": {"[1]": {"conditions": "Example 1 uncoated tablet of Formulation 1 (0.9081 g), standard cooling water, time 0 minutes"}, "[2]": {"conditions": "Example 1 uncoated tablet of Formulation 1, standard cooling water, time 1 minutes"}, "[3]": {"conditions": "Example 1 uncoated tablet of Formulation 1, standard cooling water, time 5 minutes"}, "[4]": {"conditions": "Example 1 uncoated tablet of Formulation 1, standard cooling water, time 10 minutes"}, "[5]": {"conditions": "Example 1 uncoated tablet of Formulation 1, standard cooling water, time 15 minutes"}, "[6]": {"conditions": "Example 1 uncoated tablet of Formulation 1, standard cooling water, time 30 minutes"}, "[7]": {"conditions": "Example 1 uncoated tablet of Formulation 1, standard cooling water, time 60 minutes"}, "[8]": {"conditions": "Example 1 uncoated tablet of Formulation 1, standard cooling water, time 130 minutes"}, "[9]": {"conditions": "Example 2 tablet coated with polyethylene oxide (1.411 g), time 0 minutes"}, "[10]": {"conditions": "Example 2 tablet coated with polyethylene oxide, time 5 minutes"}, "[11]": {"conditions": "Example 2 tablet coated with polyethylene oxide, time 15 minutes"}, "[12]": {"conditions": "Example 2 tablet coated with polyethylene oxide, time 30 minutes"}, "[13]": {"conditions": "Example 2 tablet coated with polyethylene oxide, time 75 minutes, in mg/min"}, "[14]": {"conditions": "Example 2 tablet coated with polyethylene oxide, time 110 minutes, in mg/min"}, "[15]": {"conditions": "Example 2 tablet coated with polyethylene oxide, time 180 minutes, in mg/min"}, "[16]": {"conditions": "Example 2 tablet coated with polyethylene oxide, time 40 minutes"}, "[17]": {"conditions": "Example 2 tablet coated with polyethylene oxide, time 50 minutes"}, "[18]": {"conditions": "Example 2 tablet coated with polyethylene oxide, time 61 minutes, in mg/min"}}, "data": [{"smiles": "O=S(=O)([O-])c1cc(S(=O)(=O)[O-])c2ccc3c(S(=O)(=O)[O-])cc(S(=O)(=O)[O-])c4ccc1c2c43.[Na+].[Na+].[Na+].[Na+]", "note": "[PTSA, 1,3,6,8-pyrenetetrasulfonic acid, sodium salt]", "values": [{"measurement": "Release Rate", "setting": "[1]", "result": "*"}, {"measurement": "Release Rate", "setting": "[2]", "result": "*"}, {"measurement": "Release Rate", "setting": "[3]", "result": 0.5925, "unit": "mg per min."}, {"measurement": "Release Rate", "setting": "[4]", "result": 0.98, "unit": "mg per min."}, {"measurement": "Release Rate", "setting": "[5]", "result": 0.5, "unit": "mg per min."}, {"measurement": "Release Rate", "setting": "[6]", "result": 0.143, "unit": "mg per min."}, {"measurement": "Release Rate", "setting": "[7]", "result": "*"}, {"measurement": "Release Rate", "setting": "[8]", "result": "*"}, {"measurement": "Release Rate", "setting": "[9]", "result": "*"}, {"measurement": "Release Rate", "setting": "[10]", "result": "*"}, {"measurement": "Release Rate", "setting": "[11]", "result": "*"}, {"measurement": "Release Rate", "setting": "[12]", "result": "*"}, {"measurement": "Release Rate", "setting": "Example 2 tablet coated with polyethylene oxide, time 40 minutes, in mg/min", "result": 0.052}, {"measurement": "Release Rate", "setting": "Example 2 tablet coated with polyethylene oxide, time 50 minutes, in mg/min", "result": 0.121}, {"measurement": "Release Rate", "setting": "Example 2 tablet coated with polyethylene oxide, time 61 minutes", "result": 0.33, "unit": "mg/min"}, {"measurement": "Release Rate", "setting": "[13]", "result": 0.190}, {"measurement": "Release Rate", "setting": "[14]", "result": 0.0571}, {"measurement": "Release Rate", "setting": "[15]", "result": 0.00493}]}, {"smiles": "c1ccc2[nH]nnc2c1", "note": "[BZT, benzotriazole]", "values": [{"measurement": "Release Rate", "setting": "[1]", "result": "*"}, {"measurement": "Release Rate", "setting": "[2]", "result": "*"}, {"measurement": "Release Rate", "setting": "[3]", "result": 8.75, "unit": "mg per min."}, {"measurement": "Release Rate", "setting": "[4]", "result": 13.8, "unit": "mg per min."}, {"measurement": "Release Rate", "setting": "[5]", "result": 11.4, "unit": "mg per min."}, {"measurement": "Release Rate", "setting": "[6]", "result": 2.167, "unit": "mg per min."}, {"measurement": "Release Rate", "setting": "[7]", "result": 0.5, "unit": "mg per min."}, {"measurement": "Release Rate", "setting": "[8]", "result": 0.493, "unit": "mg per min."}, {"measurement": "Release Rate", "setting": "[9]", "result": "*"}, {"measurement": "Release Rate", "setting": "[10]", "result": "*"}, {"measurement": "Release Rate", "setting": "[11]", "result": "*"}, {"measurement": "Release Rate", "setting": "[12]", "result": "*"}, {"measurement": "Release Rate", "setting": "[16]", "result": 0.2, "unit": "mg/min"}, {"measurement": "Release Rate", "setting": "[17]", "result": 2.6, "unit": "mg/min"}, {"measurement": "Release Rate", "setting": "[18]", "result": 5.545}, {"measurement": "Release Rate", "setting": "[13]", "result": 4.393}, {"measurement": "Release Rate", "setting": "[14]", "result": 0.829}, {"measurement": "Release Rate", "setting": "[15]", "result": 0.236}]}, {"smiles": "CC(O)(P(=O)(O)O)P(=O)(O)O", "note": "[HEDP, 1-hydroxyethylidene-1,1-diphosphonic acid]", "values": [{"measurement": "Release Rate", "setting": "[1]", "result": "*"}, {"measurement": "Release Rate", "setting": "[2]", "result": "*"}, {"measurement": "Release Rate", "setting": "[3]", "result": 10.5, "unit": "mg per min."}, {"measurement": "Release Rate", "setting": "[4]", "result": 20, "unit": "mg per min."}, {"measurement": "Release Rate", "setting": "[5]", "result": 11.4, "unit": "mg per min."}, {"measurement": "Release Rate", "setting": "[6]", "result": 0.933, "unit": "mg per min."}, {"measurement": "Release Rate", "setting": "[7]", "result": 1.03, "unit": "mg per min."}, {"measurement": "Release Rate", "setting": "[8]", "result": 0.0143, "unit": "mg per min."}, {"measurement": "Release Rate", "setting": "[9]", "result": "*"}, {"measurement": "Release Rate", "setting": "[10]", "result": "*"}, {"measurement": "Release Rate", "setting": "[11]", "result": "*"}, {"measurement": "Release Rate", "setting": "[12]", "result": "*"}, {"measurement": "Release Rate", "setting": "[16]", "result": 1.2, "unit": "mg/min"}, {"measurement": "Release Rate", "setting": "[17]", "result": 2.55, "unit": "mg/min"}, {"measurement": "Release Rate", "setting": "[18]", "result": 8.091}, {"measurement": "Release Rate", "setting": "[13]", "result": 4.893}, {"measurement": "Release Rate", "setting": "Example 2 tablet coated with polyethylene oxide, time 110 minutes", "result": 1.7, "unit": "mg/min"}, {"measurement": "Release Rate", "setting": "[15]", "result": 0.329}]}]}
